Reference: US11427553B2, “Dihydrooxadiazinones” (Bayer Aktiengesellschaft, priority 2017, dated 2022)

Assays:
HeLa cells = test: Assay 1 cell proliferation measurement (CTG, 72 h), HeLa; assay type: cell-based, human; conditions: Homo sapiens, HeLa; Assay 1, 72 h, Cell Titer Glo; read-out: HeLa IC50 [nM] (Cervical cancer)
How it was run: (§1)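 Growth inhibition relative to a 0 h baseline plate and 0.3% DMSO control, with IC50 fitted by 4-parameter curve. Compound exposure lasted 72 h at 37 °C across a 2.5-fold, 10-step series starting generally at 100 nM final.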

SK-MEL-3 cells = test: Assay 1 cell proliferation measurement (CTG, 72 h), SK-MEL-3; assay type: cell-based, human; conditions: Homo sapiens, SK-MEL3; Assay 1, 72 h, Cell Titer Glo; read-out: SK-MEL-3 IC50 [nM] (melanoma)
How it was run: as §1

human full length PDE3A = human full length PDE3A (Homo sapiens (Human), UniProt Q14432); test: Assay 4 PDE3A enzyme inhibition (3H-cAMP SPA); assay type: biochemical; conditions: Sf9 cell extract
How it was run: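 Enzyme: Sf9 extract with overexpressed full-length PDE3A; substrate [8-3H]cAMP, 0.025 μCi/well; 60 min, room temperature, Tris/HCl pH 7.5 buffer with MgCl2, EDTA, BSA.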

human full length PDE3B = human full length PDE3B (Homo sapiens (Human), UniProt Q13370); test: Assay 5 PDE3B enzyme inhibition (3H-cAMP SPA); assay type: biochemical; conditions: Sf9 cell extract
How it was run: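 Sf9 cell extract expressing human full-length PDE3B, diluted for linear kinetics (<70% substrate use), in 50 mM Tris/HCl pH 7.5, 8.3 mM MgCl2, 1.7 mM EDTA. [8-3H]cAMP substrate, 60 min at room temperature; stopped with yttrium SPA beads, scintillation counting. IC50 from sigmoidal activity vs log concentration curves.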

Sequence of human full length PDE3B (Q13370 whole entry): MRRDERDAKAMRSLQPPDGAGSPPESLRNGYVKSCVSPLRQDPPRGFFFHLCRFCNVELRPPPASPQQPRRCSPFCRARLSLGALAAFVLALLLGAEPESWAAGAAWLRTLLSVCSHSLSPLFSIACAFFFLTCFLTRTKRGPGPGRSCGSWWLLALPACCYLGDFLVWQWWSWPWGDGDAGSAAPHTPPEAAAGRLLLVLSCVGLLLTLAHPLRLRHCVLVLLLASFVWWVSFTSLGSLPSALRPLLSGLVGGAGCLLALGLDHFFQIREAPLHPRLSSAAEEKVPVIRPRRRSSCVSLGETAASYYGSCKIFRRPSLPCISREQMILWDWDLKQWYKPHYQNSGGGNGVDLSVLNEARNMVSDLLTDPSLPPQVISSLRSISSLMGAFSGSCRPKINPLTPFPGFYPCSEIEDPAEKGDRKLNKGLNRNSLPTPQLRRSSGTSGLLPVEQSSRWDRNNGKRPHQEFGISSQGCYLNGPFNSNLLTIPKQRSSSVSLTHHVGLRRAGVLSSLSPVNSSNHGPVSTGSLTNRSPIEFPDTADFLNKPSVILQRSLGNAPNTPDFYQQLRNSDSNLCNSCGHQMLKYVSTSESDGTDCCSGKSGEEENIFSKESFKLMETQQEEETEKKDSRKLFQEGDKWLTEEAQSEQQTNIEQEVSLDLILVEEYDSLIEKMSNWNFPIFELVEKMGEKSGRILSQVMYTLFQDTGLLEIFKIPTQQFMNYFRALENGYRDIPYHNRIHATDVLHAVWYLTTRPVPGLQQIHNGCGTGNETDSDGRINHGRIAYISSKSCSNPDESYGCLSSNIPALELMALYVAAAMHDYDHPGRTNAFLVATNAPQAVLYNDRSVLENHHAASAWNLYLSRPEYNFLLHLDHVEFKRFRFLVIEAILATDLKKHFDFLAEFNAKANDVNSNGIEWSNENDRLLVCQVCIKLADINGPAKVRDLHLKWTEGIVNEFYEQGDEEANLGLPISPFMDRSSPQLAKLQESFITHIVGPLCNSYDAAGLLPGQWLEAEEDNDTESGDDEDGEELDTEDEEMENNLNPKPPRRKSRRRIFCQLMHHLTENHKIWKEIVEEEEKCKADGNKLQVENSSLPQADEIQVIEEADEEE
Sequence of human full length PDE3A (Q14432 whole entry): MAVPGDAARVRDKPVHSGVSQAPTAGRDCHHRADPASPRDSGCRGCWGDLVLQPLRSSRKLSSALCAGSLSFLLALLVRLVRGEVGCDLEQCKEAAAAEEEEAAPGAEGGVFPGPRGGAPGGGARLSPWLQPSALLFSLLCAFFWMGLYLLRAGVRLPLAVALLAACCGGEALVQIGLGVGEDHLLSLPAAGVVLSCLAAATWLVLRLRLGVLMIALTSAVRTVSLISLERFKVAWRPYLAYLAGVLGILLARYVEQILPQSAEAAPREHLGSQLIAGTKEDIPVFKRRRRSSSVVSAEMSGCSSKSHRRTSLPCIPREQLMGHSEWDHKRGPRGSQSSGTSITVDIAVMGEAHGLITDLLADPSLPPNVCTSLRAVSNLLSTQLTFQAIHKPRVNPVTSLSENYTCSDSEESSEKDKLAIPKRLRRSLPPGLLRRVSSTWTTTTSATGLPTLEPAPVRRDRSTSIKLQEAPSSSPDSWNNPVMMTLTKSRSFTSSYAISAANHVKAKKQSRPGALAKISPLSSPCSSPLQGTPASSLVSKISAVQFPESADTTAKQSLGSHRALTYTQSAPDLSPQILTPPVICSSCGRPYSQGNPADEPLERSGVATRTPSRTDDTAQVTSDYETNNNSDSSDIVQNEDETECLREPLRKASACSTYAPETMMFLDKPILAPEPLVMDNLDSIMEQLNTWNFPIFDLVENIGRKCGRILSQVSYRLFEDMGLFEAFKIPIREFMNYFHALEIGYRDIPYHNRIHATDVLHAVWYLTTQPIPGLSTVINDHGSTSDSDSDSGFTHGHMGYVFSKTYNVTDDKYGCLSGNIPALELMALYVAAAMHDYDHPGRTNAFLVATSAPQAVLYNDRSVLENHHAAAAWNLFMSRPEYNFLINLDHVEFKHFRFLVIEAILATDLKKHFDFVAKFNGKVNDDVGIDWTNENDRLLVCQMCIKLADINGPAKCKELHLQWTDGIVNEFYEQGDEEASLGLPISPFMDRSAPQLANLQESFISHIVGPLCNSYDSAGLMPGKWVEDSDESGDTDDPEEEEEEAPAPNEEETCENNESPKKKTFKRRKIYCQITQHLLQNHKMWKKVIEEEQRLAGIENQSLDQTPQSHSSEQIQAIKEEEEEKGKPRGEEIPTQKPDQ

Structure (SMILES) | IC50 (HeLa cells) | IC50 (SK-MEL-3 cells) | IC50 (human full length PDE3A) | IC50 (human full length PDE3B)
O=C1NN=C(c2ccc(-c3ccc(F)c(F)c3)c(F)c2)CO1 [Example 107, 5-(2,3′,4′-Trifluoro[1,1′-biphenyl]-4-yl)-3,6-dihydro-2H-1,3,4-oxadiazin-2-one] | 6 nM | 12 nM | 150 nM | 160 nM
O=C1NN=C(c2ccc(-c3cccnc3)c(F)c2)CO1 [Example 108, 5-[3-Fluoro-4-(pyridin-3-yl)phenyl]-3,6-dihydro-2H-1,3,4-oxadiazin-2-one] | 6 nM | 13 nM | 26 nM | 22 nM
O=C1NN=C(c2ccc(-c3cccc(F)c3F)c(F)c2)CO1 [Example 109, 5-(2,2′,3′-Trifluoro[1,1′-biphenyl]-4-yl)-3,6-dihydro-2H-1,3,4-oxadiazin-2-one] | 4 nM | 9 nM | 46 nM | 32 nM
O=C1NN=C(c2ccc(-c3cc(F)cc(F)c3)c(F)c2)CO1 [Example 110, 5-(2,3′,5′-Trifluoro[1,1′-biphenyl]-4-yl)-3,6-dihydro-2H-1,3,4-oxadiazin-2-one] | 8 nM | 14 nM | 100 nM | 140 nM
Cc1ccc(-c2ccc(C3=NNC(=O)OC3)cc2F)c(C)c1 [Example 112, 5-(2-Fluoro-2′,4′-dimethyl[1,1′-biphenyl]-4-yl)-3,6-dihydro-2H-1,3,4-oxadiazin-2-one] | 6 nM | 10 nM | 170 nM | 230 nM
Cc1ccc(-c2ccc(C3=NNC(=O)OC3)cc2F)cc1F [Example 113, 5-(2,3′-Difluoro-4′-methyl[1,1′-biphenyl]-4-yl)-3,6-dihydro-2H-1,3,4-oxadiazin-2-one] | 2 nM | 6 nM | 210 nM | 215 nM
O=C1NN=C(c2ccc(-c3ccccc3F)c(F)c2)CO1 [Example 114, 5-(2,2′-Difluoro[1,1′-biphenyl]-4-yl)-3,6-dihydro-2H-1,3,4-oxadiazin-2-one] | 4 nM | 7 nM | 92 nM | 100 nM
O=C1NN=C(c2ccc(-c3c(F)cccc3F)c(F)c2)CO1 [Example 115, 5-(2,2′,6′-Trifluoro[1,1′-biphenyl]-4-yl)-3,6-dihydro-2H-1,3,4-oxadiazin-2-one] | 4 nM | 7 nM | 92 nM | 100 nM
COc1ccccc1-c1ccc(C2=NNC(=O)OC2)cc1F [Example 116, 5-(2-Fluoro-2′-methoxy[1,1′-biphenyl]-4-yl)-3,6-dihydro-2H-1,3,4-oxadiazin-2-one] | 16 nM | 35 nM | 79 nM | 76 nM
O=C1NN=C(c2ccc(-c3cccc(F)c3)c(F)c2)CO1 [Example 117, 5-(2,3′-Difluoro[1,1′-biphenyl]-4-yl)-3,6-dihydro-2H-1,3,4-oxadiazin-2-one] | 5 nM | 9 nM | 77 nM | 95 nM
Cc1ccncc1-c1ccc(C2=NNC(=O)OC2)cc1F [Example 118, 5-[3-Fluoro-4-(4-methylpyridin-3-yl)phenyl]-3,6-dihydro-2H-1,3,4-oxadiazin-2-one] | 3 nM | 6 nM | 60 nM | 64 nM
C[C@@H]1OC(=O)NN=C1c1ccc(N2CCOCC2)c(C(F)(F)F)c1 [Example 120, (6S)-6-Methyl-5-[4-(morpholin-4-yl)-3-(trifluoromethyl)phenyl]-3,6-dihydro-2H-1,3,4-oxadiazin-2-one] | 0.3 nM | 1 nM | 6 nM | 4 nM
Cn1cc(-c2ccc(C3=NNC(=O)OC3)cc2C(F)(F)F)c(C(F)(F)F)n1 [Example 127, 5-{4-[1-Methyl-3-(trifluoromethyl)-1H-pyrazol-4-yl]-3-(trifluoromethyl)phenyl}-3,6-dihydro-2H-1,3,4-oxadiazin-2-one] | > 100 nM | > 100 nM | 78 nM | 31 nM
Cc1n[nH]c(C)c1-c1ccc(C2=NNC(=O)OC2)cc1C(F)(F)F [Example 128, 5-[4-(3,5-Dimethyl-1H-pyrazol-4-yl)-3-(trifluoromethyl)phenyl]-3,6-dihydro-2H-1,3,4-oxadiazin-2-one] | > 100 nM | > 100 nM | 280 nM | 270 nM
Cc1noc(C)c1-c1ccc(C2=NNC(=O)OC2)cc1C(F)(F)F [Example 129, 5-[4-(3,5-Dimethyl-1,2-oxazol-4-yl)-3-(trifluoromethyl)phenyl]-3,6-dihydro-2H-1,3,4-oxadiazin-2-one] | > 100 nM | > 100 nM | 970 nM | 770 nM
O=C1NN=C(c2ccc(-c3c[nH]nc3C(F)(F)F)c(C(F)(F)F)c2)CO1 [Example 130, 5-{3-(Trifluoromethyl)-4-[3-(trifluoromethyl)-1H-pyrazol-4-yl]phenyl}-3,6-dihydro-2H-1,3,4-oxadiazin-2-one] | > 100 nM | 25600 nM | 200 nM | 160 nM
CCn1cc(-c2ccc(C3=NNC(=O)OC3)cc2C(F)(F)F)cn1 [Example 131, 5-[4-(1-Ethyl-1H-pyrazol-4-yl)-3-(trifluoromethyl)phenyl]-3,6-dihydro-2H-1,3,4-oxadiazin-2-one] | 2 nM | 6 nM | 32 nM | 42 nM
CN(c1ccc(C2=NNC(=O)OC2)cc1C(F)(F)F)C1CCCC1 [Example 132, 5-{4-[Cyclopentyl(methyl)amino]-3-(trifluoromethyl)phenyl}-3,6-dihydro-2H-1,3,4-oxadiazin-2-one] | 16 nM | 38 nM | 260 nM | 450 nM
CN1CC=C(c2ccc(C3=NNC(=O)OC3)cc2C(F)(F)F)CC1 [Example 133, 5-[4-(1-Methyl-1,2,3,6-tetrahydropyridin-4-yl)-3-(trifluoromethyl)phenyl]-3,6-dihydro-2H-1,3,4-oxadiazin-2-one] | 32 nM | 51 nM | > 1000 nM | > 1000 nM
CCCCN(C)c1ccc(C2=NNC(=O)OC2)cc1C(F)(F)F [Example 134, 5-{4-[Butyl(methyl)amino]-3-(trifluoromethyl)phenyl}-3,6-dihydro-2H-1,3,4-oxadiazin-2-one] | 12 nM | 26 nM | 270 nM | 580 nM
O=C1NN=C(c2ccc(NC3CCCC3)c(C(F)(F)F)c2)CO1 [Example 136, 5-[4-(Cyclopentylamino)-3-(trifluoromethyl)phenyl]-3,6-dihydro-2H-1,3,4-oxadiazin-2-one] | 0.3 nM | 1 nM | 32 nM | 27 nM
CC(C)Nc1ccc(C2=NNC(=O)OC2)cc1C(F)(F)F [Example 137, 5-[4-(Propan-2-ylamino)-3-(trifluoromethyl)phenyl]-3,6-dihydro-2H-1,3,4-oxadiazin-2-one] | 1 nM | 3 nM | 52 nM | 88 nM
O=C1NN=C(c2ccc(-c3cccc(F)c3)c(C(F)(F)F)c2)CO1 [Example 138, 5-[3′-Fluoro-2-(trifluoromethyl)biphenyl-4-yl]-3,6-dihydro-2H-1,3,4-oxadiazin-2-one] | 7 nM | 19 nM | 150 nM | 200 nM
O=C1NN=C(c2ccc(C3=CCCOC3)c(C(F)(F)F)c2)CO1 [Example 142, 5-[4-(5,6-dihydro-2H-pyran-3-yl)-3-(trifluoromethyl)phenyl]-3,6-dihydro-2H-1,3,4-oxadiazin-2-one] | 3 nM | 4 nM | 25 nM | 47 nM
O=C1NN=C(c2ccc(-c3ccc4nccn4c3)c(C(F)(F)F)c2)CO1 [Example 143, 5-[4-(Imidazo[1,2-a]pyridin-6-yl)-3-(trifluoromethyl)phenyl]-3,6-dihydro-2H-1,3,4-oxadiazin-2-one] | 15 nM | 30 nM | 38 nM | 83 nM
CC(C)(C)/C=C/c1ccc(C2=NNC(=O)OC2)cc1C(F)(F)F [Example 144, 5-{4-[3,3-Dimethylbut-1-en-1-yl]-3-(trifluoromethyl)phenyl}-3,6-dihydro-2H-1,3,4-oxadiazin-2-one] | 6 nM | 13 nM | 55 nM | 100 nM
O=C1NN=C(c2ccc(-c3csc(C(F)(F)F)c3)c(C(F)(F)F)c2)CO1 [Example 145, 5-{3-(Trifluoromethyl)-4-[5-(trifluoromethyl)thiophen-3-yl]phenyl}-3,6-dihydro-2H-1,3,4-oxadiazin-2-one] | 27 nM | 47 nM | 240 nM | 410 nM
C=C(C)c1ccc(C2=NNC(=O)OC2)cc1C(F)(F)F [Example 147, 5-[4-(Prop-1-en-2-yl)-3-(trifluoromethyl)phenyl]-3,6-dihydro-2H-1,3,4-oxadiazin-2-one] | 22 nM | 39 nM | 140 nM | 310 nM
